Each structure is given as a SMILES string.

The target in one experiment is T1, JMJD2A (Homo sapiens, UniProt O75164).
T1 construct: pNIC28-Bsa4 JMJD2A (encompassing residues 1-359); inferred from Ni-NTA purification and the pNIC28-Bsa4 vector; made in house; host or cells: E. coli BL21 (DE3) Rosetta T1R
T1 sequence (O75164 1-359): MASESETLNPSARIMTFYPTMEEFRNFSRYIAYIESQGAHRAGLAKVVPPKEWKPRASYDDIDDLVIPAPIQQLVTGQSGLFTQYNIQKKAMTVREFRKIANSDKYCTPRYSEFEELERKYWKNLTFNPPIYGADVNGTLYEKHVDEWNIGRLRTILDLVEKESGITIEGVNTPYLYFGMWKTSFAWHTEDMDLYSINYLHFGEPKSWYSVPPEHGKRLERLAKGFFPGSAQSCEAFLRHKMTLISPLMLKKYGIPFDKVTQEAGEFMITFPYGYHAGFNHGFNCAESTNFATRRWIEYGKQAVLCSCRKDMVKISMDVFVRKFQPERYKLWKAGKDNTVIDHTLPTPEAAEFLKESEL
Kind of experiment: MALDI-based inhibition assay for JMJD2A. Conditions: ARK(me3)STGGK substrate. The class given is biochemical. On the procedure:
min, before 1:1 quenching with methanol. 1 uL of the diluted assay mixture was then mixed with 1 uL of α-cyano-4-hydroxycinnamic acid (CHCA, the MALDI-TOF-MS matrix, Sigma-Aldrich) and spotted onto the MALDI-TOF-MS plate before analysis. The CHCA matrix consisted of 10 mg/mL CHCA in 50% MeCN/Milli-Q H2O containing 0.1% TFA. The percentage inhibition was estimated based on the relative intensities of the unhydroxylated substrate and the hydroxylated product observed in the mass spectra. For IC50 determination, eight different concentrations of inhibitors were used (0, 1, 3, 10, 30, 100, 300, 1000 µM); the IC50s were then calculated from the variation in percentage hydroxylation at different inhibitor concentrations, using nonlinear regression, with normalized dose-response fit on […]
MALDI-based inhibition assay for JMJD2A
The assay was performed as previously reported, with modifications.[20] A peptide substrate with the sequence ARK(me3)STGGK (GL Biochem (Shanghai) Ltd) was used in this inhibition assay. The assay was performed in triplicate for each inhibitor, in a final reaction volume of 25 µL. […]
IC50s were then calculated from the variation in percentage demethylation at different

Experiment [1] concerns the target T2, FTO (Homo sapiens, UniProt Q9C0B1).
T2 construct: The human full length FTO construct used in this study; made in house; host or cells: E. coli BL21 (DE3) Rosetta T1R
The experiment can be described thus: Differential scanning fluorimetry (DSF)-based binding assay, FTO. Conditions: 100 μM compound, 2 μM protein, 50 μM MnCl2, read-out: Tm shift (FTO). Here is the method: Superdex-200 column (GE Healthcare) pre-equilibrated with 20 mM HEPES, pH 7.5, 300 mM NaCl, 10% (v/v) glycerol, 0.5 mM TCEP. […]
Differential scanning fluorimetry (DSF)-based binding assay
DSF-based binding assay was performed using a MiniOpticon™ Real-Time PCR Detection System (Bio-Rad), monitoring protein unfolding using SYPRO orange (Invitrogen) according […]
to the reported method.[16] […]
and emission respectively. Reaction mixes contained 2 μM protein, 50 μM MnCl2, 100 μM […]
Reagents were prepared in 50mM
HEPES buffer, pH 7.5 except metals, which were dissolved as 100 mM stocks in 20 mM HCl, then further diluted in MilliQ water. Compounds tested were prepared in 100% DMSO and added such that the final concentration of DMSO was not more than 1% v/v of assay […]
increased linearly by 1°C min -1. The software provided was used to perform global minimum subtraction. The inflection point, representing Tm, was calculated by fitting the Boltzmann equation to the sigmoidal curves obtained; data were processed using GraphPad Prism 6.0™.
The Tm shift caused by the addition of small molecules/ fragments was determined by subtraction of the “reference” Tm (protein incubated with metal and 1% v/v DMSO) from the Tm obtained in the presence of the compound. […]
On the technique in general: Differential scanning fluorimetry follows unfolding on heating by fluorescence.

In experiment [2] the target is T2, FTO. The experiment can be described thus: HPLC-based inhibition assay for FTO, m3T substrate. Type of experiment: biochemical. Conditions: HPLC-based demethylase assay, m3T substrate; read-out: IC50 (FTO). Here is the method:
HPLC-based inhibition assays for FTO
The assay was modified from previously reported method.[17] It is performed in triplicate for each inhibitor, in a final reaction volume of 25 µL. Reaction consisted of FTO (1 µM), 2OG (50 µM), (NH4)2Fe(SO4)2·6H2O (50 µM), L-ascorbate (2 mM), 3-methylthymidine (m3T substrate, 10 µM) in 50 mM HEPES buffer, pH 7.5, and inhibitor at various concentrations (final DMSO concentration not more than 1% v/v of assay mix). The reaction was incubated at 4°C for 1 h, before analysis on a HPLC system. The substrate (m3T) and the demethylated product (thymidine) were separated using a Zorbax C18 column (4.6 mm x 250 mm) with a […]
flow rate of 1 mL/min at room temperature.
The percentage inhibition was estimated based on the peak areas of the 3-methylthymidine substrate and the thymidine product. For IC50 determination, eight different concentrations of […]
the variation in percentage demethylation at different inhibitor concentrations, using nonlinear regression, with normalized dose-response fit on GraphPad Prism 6.0™.
HPLC-based assay for FTO was also performed using an m6A-ssRNA as substrate. The assay was modified from previously reported method.[21] All reaction conditions are as described for the inhibition of m3T demethylation above, except that a 15-mer ssRNA with the sequence 5’-CUUGUCA(m6A)CAGCAGA-3’ (Yale University, W.M. Keck Foundation Biotechnology Resource Laboratory) was used as substrate (10 µM). The reaction was analysed on a bio-inert HPLC system. The m6A-ssRNA substrate and the corresponding demethylated product were separated using a Dionex DNAPac PA200 anion-exchange

A further experiment concerns PHD2. The arrangement: method as in PMID 16858410. Particulars: known inhibitor; cited from earlier work.

T2 sequence (Q9C0B1 whole entry): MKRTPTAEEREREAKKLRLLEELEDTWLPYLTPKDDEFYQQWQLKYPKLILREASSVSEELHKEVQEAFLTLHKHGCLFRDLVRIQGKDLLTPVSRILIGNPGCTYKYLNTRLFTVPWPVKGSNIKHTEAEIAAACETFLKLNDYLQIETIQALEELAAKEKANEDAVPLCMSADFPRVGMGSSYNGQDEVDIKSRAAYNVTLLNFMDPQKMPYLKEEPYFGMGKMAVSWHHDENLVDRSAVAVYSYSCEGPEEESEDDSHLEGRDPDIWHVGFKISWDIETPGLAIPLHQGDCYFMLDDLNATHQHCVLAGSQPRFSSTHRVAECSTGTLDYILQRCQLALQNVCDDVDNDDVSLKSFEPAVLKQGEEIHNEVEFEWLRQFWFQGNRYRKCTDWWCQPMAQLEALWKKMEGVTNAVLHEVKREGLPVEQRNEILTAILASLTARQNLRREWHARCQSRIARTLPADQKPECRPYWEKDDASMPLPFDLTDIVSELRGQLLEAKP

By IC50 is commonly meant the concentration that gives 50% inhibition. Compound `O=C(O)/C=C/C(=O)NNC(=O)c1cnccc1Cc1ccccc1` [Compound 12] had an IC50 against JMJD2A of more than 300 µM. Regarding `O=C(O)/C=C/C(=O)NNC(=O)c1ccccn1` [Compound 23], the ΔTm at 100 µM at FTO [1] is 2.7 °C. Also, the IC50 at FTO [2] stood at 109 µM. For `O=C(O)/C=C/C(=O)NNC(=O)c1cccnc1` [Compound 21], the IC50 with PHD2 is 0.082 µM.

As to `O=C(O)C=CC(=O)NNC(=O)c1cc(Cc2ccccc2)ccn1` [Compound 22], on FTO [1], the ΔTm at 100 µM worked out at 3 °C. Besides, the IC50 at FTO [2] came to 86.8 µM.
